Assay results: publication PMC11359702, “Synthesis and Biochemical Evaluation of Ethanoanthracenes and Related Compounds: Antiproliferative and Pro-Apoptotic Effects in Chronic Lymphocytic Leukemia (CLL)” (Pharmaceuticals, 2024)
pIC50: −log10 of the molar value. Values joined by “and” are separate entries in the source; they are usually repeats but may differ in a detail not shown here. Equal values may be shown once. Read-outs that look alike come from different tables or passages of the source.

Legend:
[1] = test system: PGA-1 cells; settings: 10 µM
[2] = test system: HG-3 cells; experiment: alamarBlue cell viability assay; settings: for pIC50: read-out: HG-3 IC50, HG-3, 24 h
[3] = test system: HL-60(TB); experiment: NCI-60 five-dose assay; format: cell-based, human
[4] = test system: RPMI-8226; experiment: NCI-60 five-dose assay; format: cell-based, human
[5] = test system: CCRF-CEM; experiment: NCI-60 five-dose assay; format: cell-based, human
[6] = test system: HG-3 and PGA-1 cell lines; experiment: alamarBlue cell viability assay, mean of both CLL cell lines; format: cell-based, human; settings: mean of HG-3 and PGA-1
[7] = test system: K-562; experiment: NCI-60 five-dose assay; format: cell-based, human
[8] = test system: PGA-1 cells; experiment: alamarBlue cell viability assay; settings: for pIC50: read-out: PGA-1 IC50
[9] = test system: NCI 60 cancer cell line panel; experiment: NCI-60 five-dose assay, full-panel means; format: cell-based; settings: for GI50: read-out: Mean GI50 (MID GI50, full-panel mean-graph mid-point)
Description: A number of our most promising compounds identified through preliminary cell viability testing (23c, 23d, 23f, 23h, 23l, 23m, 23n, 23o, 24f, 24l, 25n and 26n) were selected for NCI drug screening in the 60-cell-line panel. The panel includes nine subcategories based on cancer tissue types, which include leukemia, ovarian, central nervous system, breast, lung, prostate, skin, renal and colon cancer. The compounds were initially assessed in a one-dose assay at a fixed treatment concentration of 10 µM. The compounds selected for further investigation were progressed to a five-dose assay across the concentration ranges of 0.01, 0.1, 1, 10 and 100 µM [72]. The endpoints assessed in the screening protocol were GI50, TGI and LC50 [72].

[10] = test system: leukemia cell panel; experiment: NCI-60 five-dose assay, leukemia cell panel mean; format: cell-based, human; settings: mean across the six leukemia cell lines
[11] = test system: MOLT-4; experiment: NCI-60 five-dose assay; format: cell-based, human
[12] = test system: SR; experiment: NCI-60 five-dose assay; format: cell-based, human
[13] = test system: HG-3 cells
[14] = HPLC stability study in phosphate buffers; format: physicochemical; settings: for Half-life pH 4 / % remaining 24 h pH 4: pH 4 buffer; for Half-life pH 4 / % remaining 24 h pH 4 / Half-life pH 7.4 / % remaining 24 h pH 7.4 / Half-life pH 9 / % remaining 24 h pH 9: 37 °C; for % remaining 24 h pH 4 / % remaining 24 h pH 7.4 / % remaining 24 h pH 9: HPLC; for Half-life pH 7.4 / % remaining 24 h pH 7.4: pH 7.4 buffer; for Half-life pH 9 / % remaining 24 h pH 9: pH 9 buffer
Description: A preliminary stability study was carried out on selected chalcones, maleic anhydride and maleimide adducts at acidic, neutral and basic conditions (pH 4, 7.4 and 9) using HPLC to determine suitability for further preclinical investigations. […] A possible degradation route for the maleimide 23n could be through the hydrolysis of the cyclic imide of the maleimide ring, leading to the resultant amic acid product.
All samples were analyzed using acetonitrile–water (80:20%, 70:30%, 60:40% isocratic) as the mobile phase over 10 min and a flow rate of 1 mL/min. Stock solutions were prepared by dissolving 5 mg of compounds in a mobile phase ([(acetonitrile (80%): water (20%)], 10 mL). Anhydride 22h was not detected at its retention time of 5.2 min at pH 9.0. The data presented represent the results of single experiments.
The HPLC stability studies for compounds 21a, 21i, 22h, 23a, 23g, 23n, 24a, 24h, 26a and 26n were performed using a Symmetry® column (C18, 5 µm, 4.6 × 150 mm), a Waters 2487 Dual Wavelength Absorbance detector, and an HPLC pump: Waters 1525 binary and Autosampler; Waters 717 plus (Waters Corporation, Milford, MA, USA), mobile phase [(acetonitrile (80%) and water (20%)] with a typical run time of 10 min and a flow rate of 1 mL/min with detection at 254 nm. The selected compounds 21a, 21i, 22h, 23a, 23g, 23n, 24a, 24h, 26a and 26n (5 mg) in the mobile phase (10 mL) provided the stock solution for the analysis. The phosphate buffers were prepared at pH values of 4, 7.4 and 9, as described in the British Pharmacopoeia monograph 2019. The stock solution (30 µL) was added to the appropriate buffer (1 mL) and retained at 37 °C. Samples were then analyzed over the following 24-h period at selected time intervals (t = 0 min, 5 min, 30 min, 60 min, 90 min, 120 min and 24 h).

[15] = mean over NCI 60 cell line panel

Compound: CCc1ccc(C(=O)/C=C/C23c4ccccc4C(c4ccccc42)C2C(=O)NC(=O)C23)cc1 (stereo not drawn) [Compound 23c, 9-((E)-3-(4-Ethylphenyl)-3-oxoprop-1-en-1-yl)-9,10-dihydro-9,10-[3,4]epipyrroloanthracene-12,14-dione]
- cell viability [1]: 7%
- pIC50 [2]: 5.34
- GI50 ([3]; HL-60(TB)): 70 nM
- GI50 ([4]; RPMI-8226): 1870 nM
- GI50 [5]: 2660 nM
- pIC50 [6]: 5.44
- GI50 ([7]; K-562): 2420 nM
- pIC50 ([8]; PGA-1, 24 h): 5.57
- CC50 [9]: 17000 nM
- Mean TGI (MID TGI, total growth inhibition) [9, 15]: 4670 nM
- GI50 [9, 15]: 1900 nM
- GI50 [10]: 1770 nM
- GI50 ([11]; MOLT-4): 2230 nM
- GI50 [12]: 1370 nM

Compound: O=C(/C=C/C12c3ccccc3C(c3ccccc31)C1C(=O)NC(=O)C12)c1ccc(Cl)cc1Cl (stereo not drawn) [Compound 23d]
- GI50 ([3]; HL-60(TB)): 1580 nM
- GI50 ([4]; RPMI-8226): 1100 nM
- GI50 [5]: 1240 nM
- GI50 ([7]; K-562): 2190 nM
- CC50 [9]: 29500 nM
- Mean TGI (MID TGI, total growth inhibition) [9, 15]: 7580 nM
- GI50 [9, 15]: 2510 nM
- GI50 [10]: 1590 nM
- GI50 ([11]; MOLT-4): 2160 nM
- GI50 [12]: 1250 nM

Compound: O=C(/C=C/C12c3ccccc3C(c3ccccc31)C1C(=O)NC(=O)C12)c1ccccc1 (stereo not drawn) [Compound 23f, (E)-9-(3-oxo-3-phenylprop-1-en-yl)-9,10-dihydro-9,10-[3,4]epipyrroloanthracene-12,14-dione]
- cell viability ([2]; HG-3, 10 µM, 24 h, vehicle = 100%, 10 µM): 2%
- pIC50 ([2]; Homo sapiens): 5.45
- GI50 ([3]; Homo sapiens, HL-60, HL-60(TB)): 1500 nM
- GI50 ([4]; Homo sapiens, RPMI-8226, RPMI-8226): 1520 nM
- GI50 ([5]; Homo sapiens): 2160 nM
- pIC50 ([6]; Homo sapiens, CLL cell): 5.13
- GI50 ([7]; Homo sapiens, K562, K-562): 1940 nM
- pIC50 ([8]; Homo sapiens, 24 h): 4.95
- viability at 10 µM ([8]; Homo sapiens, 24 h, read-out: cell viability): 13.9%
- GI50 ([9]; Homo sapiens, mean over NCI 60 cell line panel): 1820 nM
- CC50 ([9]; Homo sapiens, mean over NCI 60 cell line panel, read-out: Mean LC50 (MID LC50)): 14800 nM
- Mean TGI (MID TGI, total growth inhibition) [9, 15]: 4570 nM
- GI50 ([10]; Homo sapiens): 1810 nM
- GI50 ([11]; Homo sapiens, MOLT-4, MOLT-4): 2170 nM
- GI50 ([12]; Homo sapiens): 1570 nM

Compound: O=C(/C=C/C12c3ccccc3C(c3ccccc31)C1C(=O)NC(=O)C12)c1ccc(I)cc1 (stereo not drawn) [Compound 23g]
- cell viability [1]: 2%
- pIC50 [2]: 5.35
- cell viability ([13]; 10 µM): 0%
- pIC50 [6]: 5.44
- pIC50 ([8]; PGA-1, 24 h): 5.56
- recovery at 24 h ([14]; over the pH range studied (pH 4, 7.4 and 9)): < 50%
- Half-life pH 4 [14]: 11.3 h
- % remaining 24 h pH 4 [14]: 7.98%
- Half-life pH 7.4 [14]: 8.9 h
- % remaining 24 h pH 7.4 [14]: 11.02%
- Half-life pH 9 [14]: 5.5 h
- % remaining 24 h pH 9 [14]: 10.50%

Compound: O=C(/C=C/C12c3ccccc3C(c3ccccc31)C1C(=O)NC(=O)C12)c1ccncc1 (stereo not drawn) [Compound 23m]
- GI50 ([3]; HL-60(TB)): 1760 nM
- GI50 ([4]; RPMI-8226): 2110 nM
- GI50 [5]: 2390 nM
- GI50 ([7]; K-562): 1880 nM
- CC50 [9]: 28200 nM
- Mean TGI (MID TGI, total growth inhibition) [9, 15]: 7760 nM
- GI50 [9, 15]: 2510 nM
- GI50 [10]: 2080 nM
- GI50 ([11]; MOLT-4): 2570 nM
- GI50 [12]: 1760 nM

Compound: O=C(/C=C/C12c3ccccc3C(c3ccccc31)C1C(=O)NC(=O)C12)c1ccco1 (stereo not drawn) [Compound 23o]
- GI50 ([3]; HL-60(TB)): 320 nM
- GI50 ([4]; RPMI-8226): 1680 nM
- GI50 [5]: 1890 nM
- GI50 ([7]; K-562): 2570 nM
- CC50 [9]: 11000 nM
- Mean TGI (MID TGI, total growth inhibition) [9, 15]: 3890 nM
- GI50 [9, 15]: 1780 nM
- GI50 [10]: 1640 nM
- GI50 ([11]; MOLT-4): 1770 nM

Compound: O=C(/C=C/C12c3ccccc3C(c3ccccc31)C1C(=O)NC(=O)C12)c1ccc2ccccc2c1 (stereo not drawn) [Compound 23p]
- cell viability [1]: 0%
- pIC50 [2]: 5.85
- cell viability ([13]; 1 µM): 46%
- cell viability ([13]; 10 µM): 0%
- pIC50 [6]: 5.87
- pIC50 ([8]; PGA-1, 24 h): 5.89

Compound: O=C(/C=C/C12c3ccccc3C(c3ccccc31)C1C(=O)N(c3ccc(C(=O)c4ccccc4)cc3)C(=O)C12)c1ccc(Br)cc1 (stereo not drawn) [Compound 26a, (E)-13-(4-Benzoylphenyl)-9-(3-(4-bromophenyl)-3-oxoprop-1-en-1-yl)-9,10-dihydro-9,10-[3,4]epipyrroloanthracene-12,14-dione]
- cell viability [1]: 29%
- decrease in cell viability compared to 26f ([2]; HG-3, 1 µM): 64%
- decrease in cell viability compared to 26f ([2]; HG-3, 10 µM): 29%
- cell viability ([13]; 1 µM): 55%
- cell viability ([13]; 10 µM): 31%
- decrease in cell viability compared to 26f ([8]; PGA-1, 1 µM): 70%
- decrease in cell viability compared to 26f ([8]; PGA-1, 10 µM): 20%
- Half-life pH 4 [14]: > 24 h
- % remaining 24 h pH 4 [14]: 64% and 63.95%
- Half-life pH 7.4 [14]: > 24 h
- % remaining 24 h pH 7.4 [14]: 61% and 61.03%
- Half-life pH 9 [14]: > 24 h
- % remaining 24 h pH 9 [14]: 66%

Compound: O=C(/C=C/C12c3ccccc3C(c3ccccc31)C1C(=O)N(c3ccc(C(=O)c4ccccc4)cc3)C(=O)C12)c1ccncc1 (stereo not drawn) [Compound 26m, (E)-13-(4-Benzoylphenyl)-9-(3-oxo-3-(pyridin-4-yl)prop-1-en-1-yl)-9,10-dihydro-9,10-[3,4]epipyrroloanthracene-12,14-dione]
- cell viability [1]: 17%
- decrease in cell viability compared to 26f ([2]; HG-3, 1 µM): 64%
- decrease in cell viability compared to 26f ([2]; HG-3, 10 µM): 59%
- cell viability ([13]; 10 µM): 27%
- decrease in cell viability compared to 26f ([8]; PGA-1, 1 µM): 64%

Compound: (E)-13-(4-Chlorophenyl)-9-(3-oxo-3-(pyridin-4-yl)prop-1-en-1-yl)-9,10-dihydro-9,10-[3,4]epipyrroloanthracene-12,14-dione [Compound 25m]
- cell viability [1]: 28%
- cell viability ([13]; 10 µM): 8%
